According to US20250230138A1, “COMPOUNDS HAVING A T-STRUCTURE FORMED BY AT LEAST FOUR CYCLES FOR USE IN THE TREATMENT OF CANCER AND OTHER INDICATIONS” (TheRas, Inc., priority 2022, published 2025):
pIC50: −log10 of the molar value. Where two headings read alike, the source gives them in different places.

Assays:
[1] = target: Cys242 in human PIK3CA (157-299) (Homo sapiens (Human), UniProt P42336); assay: Covalent modification assay using MALDI-TOF MS; format: biochemical; conditions: 4 h reaction time point
Procedure, shortened: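 Covalent adduct formation was read by linear-mode MALDI-TOF with sinapinic acid matrix, reported as modified-protein peak height divided by total protein peak heights. Reactions held PIK3CA (157-299) at 1 or 3.33 μM in HEPES/NaCl/MgCl2 buffer, pH 7.3, sampled after 15 min to 4 h at room temperature.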

pAKT in BT474 cells = assay: Cell-based pAKT HTRF assay in BT474 cells; conditions: BT474 cells, 4 hr incubation, read-out: pAKT inhibition IC50 in BT474 cells
Procedure, shortened: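 BT474 cells in DMEM/10% FBS were treated the day after seeding with a 9-point, 3-fold compound series from 3 μM (0.25% DMSO) for 4 hr. Lysates were mixed with d2 and Eu cryptate anti-pAKT antibodies and incubated 4-24 h at room temperature. HTRF was read with excitation at 320 nm and emission at 615 nm.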

[2] = 3.33 μM protein target, 1:7.5 protein to compound ratio (compounds 1-852)
[3] = 1 μM protein target, 1:5 protein to compound ratio (compounds 853-1279)

Sequence of Cys242 in human PIK3CA (157-299) (P42336 157-299): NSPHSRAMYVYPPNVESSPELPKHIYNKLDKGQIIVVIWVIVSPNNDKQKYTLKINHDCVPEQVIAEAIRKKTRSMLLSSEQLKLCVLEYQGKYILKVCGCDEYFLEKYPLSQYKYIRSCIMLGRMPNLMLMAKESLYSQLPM

Structure (SMILES)	% of modification [1, 2]	pIC50 (pAKT in BT474 cells; Compounds 10-999)	% of modification [1, 3]	other results
C=CC(=O)N1CCc2nc(-c3nc(-c4ccc5c(c4)CCN(CCO)C5)c4ccsc4c3-c3ccc(F)cc3OCCOC)sc2C1 [Compound 128]	A (percent of modification of PIK3CA protein ≥75%)	> 7.00		
C=CC(=O)N1Cc2cc(-c3nc(-c4ccc5c(c4)CCN(C)C5)c4ccsc4c3-c3c(F)cc(F)cc3OC(CF)CF)nn2C[C@H]1C [Compound 634, 1-[(6R)-2-[7-[2,4-difluoro-6-[2-fluoro-1-(fluoromethyl)ethoxy]phenyl]-4-(2-methyl-3,4-dihydro-1H-isoquinolin-6-yl)thieno[3,2-c]pyridin-6-yl]-6-methyl-6,7-dihydro-4H-pyrazolo[1,5-a]pyrazin-5-yl]prop-2-en-1-one]	A (percent of modification of PIK3CA protein ≥75%)			pIC50 (pAKT in BT474 cells; Homo sapiens, BT-474, Compounds 10-999): > 7.00
CC#CC(=O)N1CCn2nc(-c3nc(-c4ccc5c(c4)CCNC5=O)c4ccsc4c3-c3ccc(F)cc3OC(C)C)cc2C1 [Compound 268]	A (percent of modification of PIK3CA protein ≥75%)	6.00 to 7.00		
C=CC(=O)N1CCc2nc(-c3nc(-c4ccc5c(c4)CCN(C)C5)c4ccsc4c3-c3c(F)cc(F)cc3OCCO)sc2C1 [Compound 418]	A (percent of modification of PIK3CA protein ≥75%)	> 7.00		
C=CC(=O)N1CCn2nc(-c3nc(-c4ccc5c(c4)C(=O)N(C)C5)c4ccsc4c3-c3c(F)cc(F)cc3OCC(C)O)cc2C1C (centres unmarked) [Compound 878]		> 7.00	A (percent of modification of PIK3CA protein ≥75%)	
C=CC(=O)N1CCn2nc(-c3nc(N4CC5(CC(C(=O)NC)C5)C4)c4ccsc4c3-c3c(F)cc(F)cc3OCCOC)cc2[C@H]1C [Compound 1012, 2-((S)-6-((R)-5-acryloyl-4-methyl-4,5,6,7-tetrahydropyrazolo[1,5-a]pyrazin-2-yl)-7-(2,4-difluoro-6-(2-methoxyethoxy)phenyl)thieno[3,2-c]pyridin-4-yl)-N-methyl-2-azaspiro[3.3]heptane-6-carboxamide]			A (percent of modification of PIK3CA protein ≥75%)	pIC50 (pAKT in BT474 cells; Homo sapiens, BT-474, Compounds 1000-1279): > 7.00
C=CC(=O)N1CCn2nc(-c3nc(-c4ccc5c(cnn5C)c4)c4ccsc4c3-c3c(F)cc(F)cc3OCCOC)cc2[C@H]1C [Compound 1131]			D (percent of modification <25%)	pIC50 (pAKT in BT474 cells; Compounds 1000-1279): < 6.00
C=CC(=O)N1CCc2ncc(-c3nc(-c4ccc5c(c4)CN(C)C5=O)c4ccsc4c3-c3c(F)cc(F)cc3OCCOC)cc2C1 [Compound 402]	A (percent of modification of PIK3CA protein ≥75%)	> 7.00		
C=CC(=O)N1CCn2nc(-c3nc(-c4ccc5ncn(C)c(=O)c5c4)c4ccsc4c3-c3c(F)cc(F)cc3OCCOC)cc2C1C (centres unmarked) [Compound 915]		> 7.00	A (percent of modification of PIK3CA protein ≥75%)	
C=CC(=O)N1Cc2cc(-c3nc(-c4ccc5c(c4)CCN(C)C5)c4ccsc4c3-c3c(F)cc(F)cc3OC)nn2[C@@H](C)C1 [Compound 563]	A (percent of modification of PIK3CA protein ≥75%)	> 7.00		
C=CC(=O)N1CCn2nc(-c3nc(-c4ccc(CN(C)C)cc4)c4ccsc4c3-c3c(F)cc(F)cc3OCCOC)cc2C1C (centres unmarked) [Compound 991]		> 7.00	A (percent of modification of PIK3CA protein ≥75%)	
C=CC(=O)N1Cc2cc(-c3nc(-c4ccc5ncc(=O)n(C)c5c4)c4ccsc4c3-c3c(F)cc(F)cc3OCCOC)nn2CC1C (centres unmarked) [Compound 856]		> 7.00	A (percent of modification of PIK3CA protein ≥75%)	
C=CC(=O)N1CC(n2cc(-c3nc(N4CCn5cnnc5C4)c4ccsc4c3-c3ccc(F)cc3OCCOC)cn2)C1 [Compound 228]	A (percent of modification of PIK3CA protein ≥75%)	6.00 to 7.00		
C=CC(=O)N1CCc2nc(-c3nc(-c4ccc5c(c4)CCNCC5)c4ccsc4c3-c3ccc(F)cc3OCCOC)sc2C1 [Compound 121]	A (percent of modification of PIK3CA protein ≥75%)	> 7.00		
C=CC(=O)N1CCn2nc(-c3nc(-c4cnc(C)nc4)c4ccsc4c3-c3c(F)cc(F)cc3OCC(C)O)cc2C1C (centres unmarked) [Compound 791]	A (percent of modification of PIK3CA protein ≥75%)	> 7.00		
C=CC(=O)N1Cc2cc(-c3nc(-c4ccc5c(c4)CCN(C)C5)c4ccsc4c3-c3c(F)cc(F)cc3OCCO)nn2[C@@H](C)C1 [Compound 564]	D (percent of modification <25%)	6.00 to 7.00		
C=CC(=O)N1CCn2nc(-c3nc(-c4ccc5c(c4)CCN(C(C)C)C5)c4ccsc4c3-c3ccc(F)cc3F)cc2C1 [Compound 250]	A (percent of modification of PIK3CA protein ≥75%)	> 7.00		
C=CC(=O)N1CCc2nc(-c3nc(-c4ccnc(N)c4)c4ccsc4c3-c3ccc(F)cc3OCCOC)sc2C1 [Compound 141]	A (percent of modification of PIK3CA protein ≥75%)	> 7.00		
C=CC(=O)N1CC(n2cc(-c3nc(C4CCN(C(C)=O)CC4)c4ccsc4c3-c3ccc(F)cc3OC)cn2)C1 [Compound 297]	B (50%<percent of modification <75%)	5.52 to 6.00		
C=CC(=O)N1CCc2ncc(-c3nc(-c4ccc5c(c4)CCNC5)c4ccsc4c3-c3ccc(F)cc3OC)cc2C1 [Compound 86]	A (percent of modification of PIK3CA protein ≥75%)	> 7.00		
C=CC(=O)N1CCc2nc(-c3nc(-c4ccc5c(c4)CCN(C)C5)c4ccsc4c3-c3c(F)cc(F)cc3OCCOC)sc2C1 (single isomer, unassigned) [Compound 449]	D (percent of modification <25%)	5.52 to 6.00		
C=CC(=O)N1Cc2cc(-c3nc(-c4cnnc(OCCN(C)C)c4)c4ccsc4c3-c3c(F)cc(F)cc3OCCOC)nn2C[C@H]1C [Compound 884]		> 7.00	A (percent of modification of PIK3CA protein ≥75%)	
C=CC(=O)N1CCn2nc(-c3nc(-c4ccc5nn(C)cc5c4)c4ccsc4c3-c3c(F)cc(F)cc3OCCO)cc2[C@H]1C [Compound 774]	A (percent of modification of PIK3CA protein ≥75%)	> 7.00		
C=CC(=O)N1CCn2nc(-c3nc(-c4ccc5c(c4)C(O)CC5)c4ccsc4c3-c3ccc(F)cc3OCCOC)nc2C1 (centres unmarked) [Compound 192]	A (percent of modification of PIK3CA protein ≥75%)	> 7.00		
C=CC(=O)N1CCn2nc(-c3nc(-c4ccc5c(c4)CN(C)CC5)c4ccsc4c3-c3c(F)cc(F)cc3OCCOC)cc2C1C (centres unmarked) [Compound 1104]			A (percent of modification of PIK3CA protein ≥75%)	pIC50 (pAKT in BT474 cells; Compounds 1000-1279): > 7.00
C=CC(=O)N1CCc2ncc(-c3nc(-c4cnn(CC(F)F)c4)c4ccsc4c3-c3c(F)cc(F)cc3OC(C)C)cc2C1 [Compound 371]	A (percent of modification of PIK3CA protein ≥75%)	> 7.00		
C=CC(=O)N1CCc2nc(-c3nc(-c4ccc5oc(C)nc5c4)c4ccsc4c3-c3c(F)cc(F)cc3OCCOC)sc2C1 [Compound 428]	A (percent of modification of PIK3CA protein ≥75%)	> 7.00		
C=CC(=O)N1CCn2nc(-c3nc(N4CC5(CCNC(=O)C5)C4)c4ccsc4c3-c3c(F)cc(F)cc3OCCOC)cc2C1C (centres unmarked) [Compound 1088]			B (50%<percent of modification <75%)	pIC50 (pAKT in BT474 cells; Compounds 1000-1279): 6.00 to 7.00
